# Data as given in patent US20180148418A1, “AMIDO-SUBSTITUTED CYCLOHEXANE DERIVATIVES” (Bayer Pharma Aktiengesellschaft, priority 2015, published 2018).
# Target: T1, TNKS1 (Homo sapiens, UniProt O95271)
# T1 construct: purchased BPS Bioscience, San Diego, USA 80579 (TNKS1 Histone Ribosylation Assay Kit)
# T1 sequence (O95271 1-1327): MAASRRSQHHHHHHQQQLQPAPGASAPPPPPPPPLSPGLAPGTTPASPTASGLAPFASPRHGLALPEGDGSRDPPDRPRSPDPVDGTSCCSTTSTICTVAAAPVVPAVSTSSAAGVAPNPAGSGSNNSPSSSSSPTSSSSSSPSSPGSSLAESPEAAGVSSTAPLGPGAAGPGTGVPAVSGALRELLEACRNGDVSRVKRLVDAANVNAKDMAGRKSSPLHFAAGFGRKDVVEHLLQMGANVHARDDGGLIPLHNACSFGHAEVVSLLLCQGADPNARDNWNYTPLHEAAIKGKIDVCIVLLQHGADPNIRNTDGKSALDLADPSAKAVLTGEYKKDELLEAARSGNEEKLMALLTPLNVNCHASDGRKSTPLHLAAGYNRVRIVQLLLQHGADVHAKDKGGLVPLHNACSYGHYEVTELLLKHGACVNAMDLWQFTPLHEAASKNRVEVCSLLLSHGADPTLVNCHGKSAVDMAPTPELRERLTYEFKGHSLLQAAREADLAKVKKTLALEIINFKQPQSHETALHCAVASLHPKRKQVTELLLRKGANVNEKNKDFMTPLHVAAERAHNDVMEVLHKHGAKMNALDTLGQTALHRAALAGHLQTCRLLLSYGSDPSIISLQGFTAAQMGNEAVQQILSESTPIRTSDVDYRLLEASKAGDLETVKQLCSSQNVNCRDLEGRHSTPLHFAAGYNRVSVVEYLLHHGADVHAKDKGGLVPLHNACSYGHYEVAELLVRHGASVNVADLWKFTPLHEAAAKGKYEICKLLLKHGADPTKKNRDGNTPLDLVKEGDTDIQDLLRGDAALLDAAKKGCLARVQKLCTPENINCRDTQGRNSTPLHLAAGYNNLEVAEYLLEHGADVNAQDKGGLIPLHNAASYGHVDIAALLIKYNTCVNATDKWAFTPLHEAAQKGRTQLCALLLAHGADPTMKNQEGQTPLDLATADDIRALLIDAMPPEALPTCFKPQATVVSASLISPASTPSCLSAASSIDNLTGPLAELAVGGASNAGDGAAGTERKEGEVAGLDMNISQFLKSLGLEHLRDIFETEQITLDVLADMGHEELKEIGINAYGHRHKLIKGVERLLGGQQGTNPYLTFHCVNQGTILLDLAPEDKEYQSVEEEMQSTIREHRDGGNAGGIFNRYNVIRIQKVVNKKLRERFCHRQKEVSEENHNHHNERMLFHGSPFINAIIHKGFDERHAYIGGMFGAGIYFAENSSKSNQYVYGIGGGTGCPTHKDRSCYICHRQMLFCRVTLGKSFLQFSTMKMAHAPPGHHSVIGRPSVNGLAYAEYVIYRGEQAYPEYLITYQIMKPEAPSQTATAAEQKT
# Experiment: TNKS1 Assay B (auto-parsylation, [3H]-NAD+ SPA)
# Assay type: biochemical
# Settings: 6 nM TNKS1, auto-parsylation, over night at room temperature
# Experimental: The potency of selected compounds according to the invention was assessed applying a modified in vitro inhibition assay. Here, the TNKS1 catalyzed NAD^+-dependent ribosylation of the enzyme itself (auto-parsylation) was detected using [^3H]-NAD^+ as substrate and applying the scintillation proximity assay (SPA) method to detect tritium-labeled, parsylated TNKS1. The intensity of the readout signal is proportional to the incorporated [^3H]-NAD^+. Inhibition of TNKS1 leads to a decreased incorporation of [^3H]-NAD^+ and consequently to a lower readout signal intensity. The concentration of a test compound which inhibits the enzyme activity by 50% (corresponds to half of the normed readout signal intensity) is reported as IC50.
# Protocol Auto-Parsylation Assay
# The assay was conducted in a 96 well MTP format with the identical TNKS1 enzyme sample and NAD^+ sample as in the histone ribosylation assay with the following modifications: TNKS1 enzyme sample was diluted with a modified assay buffer (50 mM MES pH 7.0, 1 mM DTT, 0.01% Triton X-100) to a final concentration of 6 nM TNKS1 and 10×NAD^+ solution was diluted with the modified assay buffer (s. above) to a final 0.445×NAD^+ solution doped with 100 Bq/μl [^3H]-NAD^+[Catalog #NET443H050UC, Perkin Elmer, Waltham, Mass., USA]. Substrate solution (10 μl) was incubated with different test compound concentrations (2.5 ul in 10% DMSO in modified assay buffer) or control (2.5 ul 10% DMSO in modified assay buffer only) and enzyme (10 μl) over night at room temperature. Incorporated tritium was measured after addition of 50 μl SPA beads (1 mg/ml) [Catalog #RPNQ0095 20 mg/ml, Perkin Elmer, Waltham, Mass., USA; diluted 1:10 with Dulbecco's phosphate buffered saline, PBS Catalog #D8537, Sigma-Aldrich, Steinheim, Germany] and detection of the photon emission with a beta count plate reader [Wallac MicroBeta®, Perkin Elmer, Waltham, Mass., USA].
row,SMILES,IC50
1,"Cc1c(C(C)N(C)C)cnc2c(C(=O)N[C@H]3CC[C@H](C(=O)Nc4ccc(F)cc4Cl)CC3)cnn12 (single isomer, unassigned) [Example 56, N-{trans-4-[(2-chloro-4-fluorophenyl)carbamoyl]cyclohexyl}-6-[1-(dimethylamino)ethyl]-7-methylpyrazolo[1,5-a]pyrimidine-3-carboxamide]",840 nM
2,"Cc1c(C(C)N(C)C)cnc2c(C(=O)N[C@H]3CC[C@H](C(=O)Nc4ccc(F)cc4Cl)CC3)cnn12 (single isomer, unassigned) [Example 57, N-{trans-4-[(2-chloro-4-fluorophenyl)carbamoyl]cyclohexyl}-6-[1-(dimethylamino)ethyl]-7-methylpyrazolo[1,5-a]pyrimidine-3-carboxamide]",440 nM
3,"CNC(=O)c1nc[nH]c1C(=O)N[C@H]1CC[C@H](C(=O)Nc2cc(OC)c(OC)cc2Cl)CC1 [Example 5, N^5-{trans-4-[(2-chloro-4,5-dimethoxyphenyl)carbamoyl]cyclohexyl}-N^4-methyl-1H-imidazole-4,5-dicarboxamide]",150 nM
4,"CNC(=O)c1nc[nH]c1C(=O)N[C@H]1CC[C@H](C(=O)Nc2c(F)cc(F)cc2Cl)CC1 [Example 6, N^5-{trans-4-[(2-chloro-4,6-difluorophenyl)carbamoyl]cyclohexyl}-N^4-methyl-1H-imidazole-4,5-dicarboxamide]",77 nM
5,"CNC(=O)c1nc[nH]c1C(=O)N[C@H]1CC[C@H](C(=O)Nc2ccc(F)cc2)CC1 [Example 8, N^5-{trans-4-[(4-fluorophenyl)carbamoyl]cyclohexyl}-N^4-methyl-1H-imidazole-4,5-dicarboxamide]",4100 nM
6,"CNC(=O)c1nc[nH]c1C(=O)N[C@H]1CC[C@H](C(=O)Nc2ccc(C)cc2Cl)CC1 [Example 9, N^5-{trans-4-[(2-chloro-4-methylphenyl)carbamoyl]cyclohexyl}-N^4-methyl-1H-imidazole-4,5-dicarboxamide]",85 nM
7,"CNC(=O)c1[nH]cnc1C(=O)NC1CCC(C(=O)Nc2ccc(F)cc2Cl)CC1OC (stereo not drawn) [Example 36, N^4-{(1α,2β,4β)-4-[(2-chloro-4-fluorophenyl)carbamoyl]-2-methoxycyclohexyl}-N^5-methyl-1H-imidazole-4,5-dicarboxamide]",> 10000 nM
8,"CNC(=O)c1[nH]cnc1C(=O)NC1CCC(C(=O)Nc2ccc(F)cc2Cl)CC1OC (stereo not drawn) [Example 37, N^4-{(1α,2β,4β)-4-[(2-chloro-4-fluorophenyl)carbamoyl]-2-methoxycyclohexyl}-N^5-methyl-1H-imidazole-4,5-dicarboxamide]",> 10000 nM
9,"O=C(NCCC1CC1)c1nc[nH]c1C(=O)N[C@H]1CC[C@H](C(=O)Nc2cc(N3CCOCC3)ccc2Cl)CC1 [Example 93, N^5-(trans-4-{[2-chloro-5-(morpholin-4-yl)phenyl]carbamoyl}cyclohexyl)-N^4-(2-cyclopropylethyl)-1H-imidazole-4,5-dicarboxamide]",790 nM
10,"CC(C)(O)CNC(=O)c1nc[nH]c1C(=O)N[C@H]1CC[C@H](C(=O)Nc2cc(N3CCOCC3)ccc2Cl)CC1 [Example 94, N^5-(trans-4-{[2-chloro-5-(morpholin-4-yl)phenyl]carbamoyl}cyclohexyl)-N^4-(2-hydroxy-2-methylpropyl)-1H-imidazole-4,5-dicarboxamide]",1300 nM
11,"O=C(NCC(F)(F)F)c1nc[nH]c1C(=O)N[C@H]1CC[C@H](C(=O)Nc2cc(N3CCOCC3)ccc2Cl)CC1 [Example 95, N^5-(trans-4-{[2-chloro-5-(morpholin-4-yl)phenyl]carbamoyl}cyclohexyl)-N^4-(2,2,2-trifluoroethyl)-1H-imidazole-4,5-dicarboxamide]",2400 nM
12,"COCC(C)NC(=O)c1nc[nH]c1C(=O)N[C@H]1CC[C@H](C(=O)Nc2cnccc2Cl)CC1 (stereo partly drawn) [Example 99, N^5-{trans-4-[(4-chloropyridin-3-yl)carbamoyl]cyclohexyl}-N^4-(1-methoxypropan-2-yl)-1H-imidazole-4,5-dicarboxamide]",68 nM
13,"Cc1cc(NC(=O)[C@H]2CC[C@H](NC(=O)c3[nH]cnc3C(=O)NCC(C)(C)O)CC2)c(Cl)cc1F [Example 100, N^5-{trans-4-[(2-chloro-4-fluoro-5-methylphenyl)carbamoyl]cyclohexyl}-N^4-(2-hydroxy-2-methylpropyl)-1H-imidazole-4,5-dicarboxamide]",180 nM
14,"COC(C)(C)CNC(=O)c1nc[nH]c1C(=O)N[C@H]1CC[C@H](C(=O)Nc2cc(C)c(F)cc2Cl)CC1 [Example 101, N^5-{trans-4-[(2-chloro-4-fluoro-5-methylphenyl)carbamoyl]cyclohexyl}-N^4-(2-methoxy-2-methylpropyl)-1H-imidazole-4,5-dicarboxamide]",160 nM

# Compounds with a lower IC50, results first:
row,IC50,SMILES
1,54 nM,"COC(C)(C)CNC(=O)c1nc[nH]c1C(=O)N[C@H]1CC[C@H](C(=O)Nc2cnccc2Cl)CC1 [Example 98, N^5-{trans-4-[(4-chloropyridin-3-yl)carbamoyl]cyclohexyl}-N^4-(2-methoxy-2-methylpropyl)-1H-imidazole-4,5-dicarboxamide]"
2,45 nM,"O=C(NCC1CCCO1)c1nc[nH]c1C(=O)N[C@H]1CC[C@H](C(=O)Nc2cnccc2Cl)CC1 (stereo partly drawn) [Example 97, N^5-{trans-4-[(4-chloropyridin-3-yl)carbamoyl]cyclohexyl}-N^4-(tetrahydrofuran-2-ylmethyl)-1H-imidazole-4,5-dicarboxamide]"
3,40 nM,"CNC(=O)c1nc[nH]c1C(=O)N[C@H]1CC[C@H](C(=O)Nc2cnccc2Cl)CC1 [Example 96, N^5-{trans-4-[(4-chloropyridin-3-yl)carbamoyl]cyclohexyl}-N^4-methyl-1H-imidazole-4,5-dicarboxamide]"
4,37 nM,"COCC(C)NC(=O)c1nc[nH]c1C(=O)N[C@H]1CC[C@@]2(CCN(c3ccc(F)cc3Cl)C2=O)CC1 (mixture of isomers) [Example 164, N^5-[(trans)-2-(2-chloro-4-fluorophenyl)-1-oxo-2-azaspiro[4.5]dec-8-yl]-N^4-(1-methoxypropan-2-yl)-1H-imidazole-4,5-dicarboxamide]"
5,24 nM,"CNC(=O)c1nc[nH]c1C(=O)N[C@H]1CC[C@H](C(=O)Nc2ccc(F)cc2Br)CC1 [Example 7, N^5-{trans-4-[(2-bromo-4-fluorophenyl)carbamoyl]cyclohexyl}-N^4-methyl-1H-imidazole-4,5-dicarboxamide]"
6,10 nM,"CNC(=O)c1nc[nH]c1C(=O)N[C@H]1CC[C@H](C(=O)Nc2cc(F)c(F)cc2Cl)CC1 [Example 3, N^5-{trans-4-[(2-chloro-4,5-difluorophenyl)carbamoyl]cyclohexyl}-N^4-methyl-1H-imidazole-4,5-dicarboxamide]"
7,2.2 nM,"O=C(NCCN1CCCCC1)c1nc[nH]c1C(=O)N[C@H]1CC[C@H](C(=O)Nc2cc(F)c(F)cc2Cl)CC1 [Example 4, N^5-{trans-4-[(2-chloro-4,5-difluorophenyl)carbamoyl]cyclohexyl}-N^4-[2-(piperidin-1-yl)ethyl]-1H-imidazole-4,5-dicarboxamide]"
